Key:
[1] = biological target: T1, AP2-associated protein kinase 1 (Homo sapiens, UniProt Q2M2I8); assay: Inhibition of bacterially expressed GST-Xa-tagged human AAK1 using 5-FAM-labelled Aha-KEEQSQITSQVTGQIGWR-NH2 peptide as substrate incubated for 3 hrs in presence of ATP by electrophoretic analysis
[2] = biological target: AP2-associated protein kinase 1 (Mus musculus, UniProt Q3UHJ0); assay: Displacement of 3H-LP-927443 from AAK1 in C57BL6 mouse brain homogenate assessed as inhibition constant incubated for 1 hr by liquid scintillation counter analysis; type: tissue-based
[3] = Metabolic stability in human liver microsomes assessed as parent compound remaining at 0.5 uM incubated for 10 mins in presence of NADPH by LC-MS/MS analysis; type: ADME, Microsome; details: read-out: Stability
[4] = Metabolic stability in rat liver microsomes assessed as parent compound remaining at 0.5 uM incubated for 10 mins in presence of NADPH by LC-MS/MS analysis; type: ADME, Microsome; details: read-out: Stability
[5] = Metabolic stability in mouse liver microsomes assessed as parent compound remaining at 0.5 uM incubated for 10 mins in presence of NADPH by LC-MS/MS analysis; type: ADME, Microsome; details: liver microsomes, read-out: Stability
Cytochrome P450 3A4 = Cytochrome P450 3A4 (Homo sapiens, UniProt P08684); assay: Inhibition of CYP3A4 (unknown origin) incubated for 10 mins in presence of NADPH by LC-MS/MS analysis; type: ADME
[6] = biological target: MAP kinase-interacting serine/threonine-protein kinase 2 (Homo sapiens, UniProt Q9HBH9); assay: Inhibition of MNK2 (unknown origin)
[7] = biological target: Rho-associated protein kinase 2 (Homo sapiens, UniProt O75116); assay: Inhibition of ROCK2 (unknown origin)
[8] = biological target: Dual specificity protein kinase CLK1 (Homo sapiens, UniProt P49759); assay: Inhibition of CLK1 (unknown origin)
[9] = biological target: Dual specificity protein kinase CLK4 (Homo sapiens, UniProt Q9HAZ1); assay: Inhibition of CLK4 (unknown origin)
[10] = Cardiotoxicity in aortic ring (unknown origin) assessed as relaxation of phenylephrine induced aortic ring contraction at 10 uM incubated for 1 hr; type: toxicity, tissue-based, Aorta; set-up: scale not given: the % may be the effect or the level left; details: human
Rattus norvegicus [11] = assay: Analgesic activity in STZ-induced diabetic peripheral neuropathic mechanical allodynia in overnight fasted Sprague-Dawley rat assessed as reduction in pain response by measuring paw withdrawal latency at 1 mg/kg, po measured after 5 hrs by Hargreaves test relative to control; type: functional; set-up: scale not given: the % may be the effect or the level left
[12] = biological target: T1, AP2-associated protein kinase 1; assay: Inhibition of full length human AAK1 expressed in HEK293F cells assessed as suppression of AP2 phosphorylation measured after 3 hrs by Western blot analysis based cellular assay; type: cell-based
[13] = Ratio of drug concentration in brain to plasma in Sprague-Dawley rat at 3 mg/kg, po measured at 2 hrs post dose; type: ADME, organism-based
Rattus norvegicus [14] = assay: Analgesic activity in CCI induced thermal hyperalgesia in Sprague-Dawley rat assessed as reduction in thermal hyperalgesia by measuring paw withdrawal latency at 1 mg/kg, po measured after 5 hrs by Hargreaves test relative to control; type: functional; set-up: scale not given: the % may be the effect or the level left
[15] = Ratio of drug concentration in brain to plasma in CCI induced thermal hyperalgesia in Sprague-Dawley rat at 1 mg/kg, po measured at 5.5 hrs post dose; type: ADME, organism-based
[16] = Ratio of drug concentration in brain to plasma in STZ-induced diabetic peripheral neuropathic mechanical allodynia in overnight fasted Sprague-Dawley rat at 1 mg/kg, po measured at 5.5 hrs post dose; type: ADME, organism-based
[17] = Ratio of drug concentration in spinal cord to plasma in CCI induced thermal hyperalgesia in Sprague-Dawley rat at 1 mg/kg, po measured at 5.5 hrs post dose; type: ADME, organism-based
[18] = Ratio of drug concentration in spinal cord to plasma in STZ-induced diabetic peripheral neuropathic mechanical allodynia in overnight fasted Sprague-Dawley rat at 1 mg/kg, po measured at 5.5 hrs post dose; type: ADME, organism-based
[19] = Plasma concentration in CCI induced thermal hyperalgesia in Sprague-Dawley rat at 1 mg/kg, po measured at 5.5 hrs post dose; type: ADME, organism-based
[20] = Plasma concentration in STZ-induced diabetic peripheral neuropathic mechanical allodynia in overnight fasted Sprague-Dawley rat at 1 mg/kg, po measured at 5.5 hrs post dose; type: ADME, organism-based
[21] = Brain concentration in CCI induced thermal hyperalgesia in Sprague-Dawley rat at 1 mg/kg, po measured at 5.5 hrs post dose; type: ADME, organism-based; details: read-out: Ct
[22] = Brain concentration in STZ-induced diabetic peripheral neuropathic mechanical allodynia in overnight fasted Sprague-Dawley rat at 1 mg/kg, po measured at 5.5 hrs post dose; type: ADME, organism-based; details: read-out: Ct
[23] = Drug concentration in CCI induced thermal hyperalgesia in Sprague-Dawley rat spinal cord at 1 mg/kg, po measured after 5.5 hrs; type: ADME, organism-based; details: read-out: Ct
[24] = Drug concentration in STZ-induced diabetic peripheral neuropathic mechanical allodynia in overnight fasted Sprague-Dawley rat spinal cord at 1 mg/kg, po measured after 5.5 hrs; type: ADME, organism-based; details: read-out: Ct
[25] = biological target: BMP-2-inducible protein kinase (Homo sapiens, UniProt Q9NSY1); assay: Inhibition of BIKE (unknown origin)
[26] = biological target: Death-associated protein kinase 1 (Homo sapiens, UniProt P53355); assay: Inhibition of DAPK1 (unknown origin)
[27] = biological target: T2, Cyclin-G-associated kinase (Homo sapiens, UniProt O14976); assay: Inhibition of GAK (unknown origin)
T2 sequence (O14976 whole entry): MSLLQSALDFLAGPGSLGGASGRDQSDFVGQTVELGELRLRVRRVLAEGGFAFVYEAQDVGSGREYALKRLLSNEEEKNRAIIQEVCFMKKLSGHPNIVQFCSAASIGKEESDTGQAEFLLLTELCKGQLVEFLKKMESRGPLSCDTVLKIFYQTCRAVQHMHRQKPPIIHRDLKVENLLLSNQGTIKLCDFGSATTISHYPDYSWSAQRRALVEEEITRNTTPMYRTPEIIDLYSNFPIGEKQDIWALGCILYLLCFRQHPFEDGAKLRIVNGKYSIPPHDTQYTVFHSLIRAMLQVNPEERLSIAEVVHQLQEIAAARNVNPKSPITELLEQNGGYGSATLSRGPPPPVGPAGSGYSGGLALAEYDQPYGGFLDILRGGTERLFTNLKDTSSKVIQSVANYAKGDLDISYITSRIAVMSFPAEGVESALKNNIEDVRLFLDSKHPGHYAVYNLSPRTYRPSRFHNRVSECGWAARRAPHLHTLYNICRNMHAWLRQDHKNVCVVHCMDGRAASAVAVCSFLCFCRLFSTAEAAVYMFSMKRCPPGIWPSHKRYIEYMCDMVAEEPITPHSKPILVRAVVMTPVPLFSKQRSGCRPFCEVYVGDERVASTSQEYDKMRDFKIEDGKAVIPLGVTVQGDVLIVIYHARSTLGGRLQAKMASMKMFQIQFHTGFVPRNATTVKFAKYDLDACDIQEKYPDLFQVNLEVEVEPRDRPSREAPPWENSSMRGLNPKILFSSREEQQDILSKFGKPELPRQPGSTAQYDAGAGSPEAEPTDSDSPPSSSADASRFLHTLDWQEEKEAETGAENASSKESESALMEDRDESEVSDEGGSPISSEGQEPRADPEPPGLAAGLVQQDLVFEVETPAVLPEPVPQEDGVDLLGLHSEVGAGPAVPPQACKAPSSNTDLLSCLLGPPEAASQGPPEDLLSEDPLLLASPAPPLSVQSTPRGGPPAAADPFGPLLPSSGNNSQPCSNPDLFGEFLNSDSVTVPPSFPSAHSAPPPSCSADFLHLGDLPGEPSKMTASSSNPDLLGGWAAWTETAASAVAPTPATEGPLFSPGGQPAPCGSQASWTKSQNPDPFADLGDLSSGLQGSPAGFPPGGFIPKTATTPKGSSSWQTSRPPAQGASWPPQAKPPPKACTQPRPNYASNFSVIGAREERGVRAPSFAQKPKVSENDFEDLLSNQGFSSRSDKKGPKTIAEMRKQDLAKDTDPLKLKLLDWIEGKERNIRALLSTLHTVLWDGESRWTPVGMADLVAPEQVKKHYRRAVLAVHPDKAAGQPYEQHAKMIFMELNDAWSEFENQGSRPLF

[28] = biological target: Death-associated protein kinase 3 (Homo sapiens, UniProt O43293); assay: Inhibition of DAPK3 (unknown origin)
[29] = biological target: T3, Homeodomain-interacting protein kinase 4 (Homo sapiens, UniProt Q8NE63); assay: Inhibition of HIPK4 (unknown origin)
T3 sequence (Q8NE63 whole entry): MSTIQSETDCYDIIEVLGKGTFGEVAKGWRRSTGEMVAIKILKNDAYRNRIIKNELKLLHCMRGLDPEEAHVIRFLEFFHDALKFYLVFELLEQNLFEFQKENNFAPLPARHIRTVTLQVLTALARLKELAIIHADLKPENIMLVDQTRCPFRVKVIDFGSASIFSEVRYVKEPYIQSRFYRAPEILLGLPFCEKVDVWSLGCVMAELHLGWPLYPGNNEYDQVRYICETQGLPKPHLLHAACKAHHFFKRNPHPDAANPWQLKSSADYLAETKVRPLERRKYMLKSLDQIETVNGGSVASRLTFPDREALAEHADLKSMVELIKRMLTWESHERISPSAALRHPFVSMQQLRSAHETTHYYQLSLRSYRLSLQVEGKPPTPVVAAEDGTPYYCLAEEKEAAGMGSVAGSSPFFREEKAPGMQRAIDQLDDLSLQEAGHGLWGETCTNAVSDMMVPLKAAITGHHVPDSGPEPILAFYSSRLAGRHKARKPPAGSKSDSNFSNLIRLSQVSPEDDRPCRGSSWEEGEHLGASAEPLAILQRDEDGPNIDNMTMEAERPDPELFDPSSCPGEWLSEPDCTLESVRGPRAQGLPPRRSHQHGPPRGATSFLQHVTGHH

[30] = Inhibition of CK2A2 (unknown origin); set-up: species or system Homo sapiens
Myotonin-protein kinase = Myotonin-protein kinase (Homo sapiens, UniProt Q09013); assay: Inhibition of DMPK1 (unknown origin)
[31] = Inhibition of MEK (unknown origin); set-up: species or system Homo sapiens
[32] = biological target: Tyrosine-protein kinase receptor TYRO3 (Homo sapiens, UniProt Q06418); assay: Inhibition of TYRO3 (unknown origin)
[33] = biological target: MAP kinase-interacting serine/threonine-protein kinase 1 (Homo sapiens, UniProt Q9BUB5); assay: Inhibition of MNK1 (unknown origin)
[34] = biological target: Myosin light chain kinase 2, skeletal/cardiac muscle (Homo sapiens, UniProt Q9H1R3); assay: Inhibition of MYLK2 (unknown origin)
[35] = biological target: Citron Rho-interacting kinase (Homo sapiens, UniProt O14578); assay: Inhibition of CRIK (unknown origin)
[36] = biological target: Tyrosine-protein kinase JAK2 (Homo sapiens, UniProt O60674); assay: Inhibition of JAK2 (unknown origin)
[37] = biological target: Dual specificity mitogen-activated protein kinase kinase 1 (Homo sapiens, UniProt Q02750); assay: Inhibition of MEK1/MAP2K1 (unknown origin)
[38] = biological target: Serine/threonine-protein kinase N2 (Homo sapiens, UniProt Q16513); assay: Inhibition of PKN2 (unknown origin)
[39] = biological target: STE20/SPS1-related proline-alanine-rich protein kinase (Homo sapiens, UniProt Q9UEW8); assay: Inhibition of STLK3 (unknown origin)
[40] = biological target: Serine/threonine-protein kinase tousled-like 1 (Homo sapiens, UniProt Q9UKI8); assay: Inhibition of TLK1 (unknown origin)
[41] = biological target: Serine/threonine-protein kinase tousled-like 2 (Homo sapiens, UniProt Q86UE8); assay: Inhibition of TLK2 (unknown origin)

AP2-associated protein kinase 1 (Mus musculus, UniProt Q3UHJ0), sequence (Q3UHJ0 whole entry): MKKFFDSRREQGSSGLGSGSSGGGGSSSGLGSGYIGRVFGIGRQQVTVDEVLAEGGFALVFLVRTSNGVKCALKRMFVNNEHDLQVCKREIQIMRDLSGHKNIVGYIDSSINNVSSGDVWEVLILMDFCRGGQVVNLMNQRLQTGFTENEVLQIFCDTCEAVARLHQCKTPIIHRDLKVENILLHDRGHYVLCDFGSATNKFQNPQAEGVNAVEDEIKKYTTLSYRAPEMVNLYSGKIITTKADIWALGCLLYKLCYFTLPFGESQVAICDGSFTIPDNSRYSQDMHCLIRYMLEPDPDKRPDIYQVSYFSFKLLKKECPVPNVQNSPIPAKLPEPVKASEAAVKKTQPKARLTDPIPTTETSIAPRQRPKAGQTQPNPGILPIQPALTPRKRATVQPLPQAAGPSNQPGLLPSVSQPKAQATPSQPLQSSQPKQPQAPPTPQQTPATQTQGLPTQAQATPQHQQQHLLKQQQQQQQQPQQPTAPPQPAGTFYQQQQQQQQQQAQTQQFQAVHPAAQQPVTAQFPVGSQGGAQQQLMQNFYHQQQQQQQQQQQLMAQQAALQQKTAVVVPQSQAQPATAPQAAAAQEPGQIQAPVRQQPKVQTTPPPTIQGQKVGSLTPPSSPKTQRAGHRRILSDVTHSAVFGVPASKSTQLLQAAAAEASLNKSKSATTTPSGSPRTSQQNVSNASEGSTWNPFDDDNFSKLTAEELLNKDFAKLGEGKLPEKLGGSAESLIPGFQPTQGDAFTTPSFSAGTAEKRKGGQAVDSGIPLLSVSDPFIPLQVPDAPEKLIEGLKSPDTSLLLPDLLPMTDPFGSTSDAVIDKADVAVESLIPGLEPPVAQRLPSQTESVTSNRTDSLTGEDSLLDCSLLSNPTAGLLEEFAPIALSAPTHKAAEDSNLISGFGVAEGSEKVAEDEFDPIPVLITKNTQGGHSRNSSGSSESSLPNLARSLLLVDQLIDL
MAP kinase-interacting serine/threonine-protein kinase 2, sequence (Q9HBH9 whole entry): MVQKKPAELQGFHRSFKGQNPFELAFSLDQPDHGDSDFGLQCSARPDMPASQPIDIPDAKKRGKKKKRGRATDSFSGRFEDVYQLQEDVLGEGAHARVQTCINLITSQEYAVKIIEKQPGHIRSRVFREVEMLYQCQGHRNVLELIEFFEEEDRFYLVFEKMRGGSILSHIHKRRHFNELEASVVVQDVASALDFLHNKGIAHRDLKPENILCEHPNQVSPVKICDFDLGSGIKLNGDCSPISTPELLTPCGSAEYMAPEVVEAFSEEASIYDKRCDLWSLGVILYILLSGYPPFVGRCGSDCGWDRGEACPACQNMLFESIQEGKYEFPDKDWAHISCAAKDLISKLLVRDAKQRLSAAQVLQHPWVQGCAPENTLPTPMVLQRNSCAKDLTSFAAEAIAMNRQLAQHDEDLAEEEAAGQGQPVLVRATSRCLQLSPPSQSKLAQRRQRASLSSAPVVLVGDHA
Cytochrome P450 3A4, sequence (P08684 whole entry): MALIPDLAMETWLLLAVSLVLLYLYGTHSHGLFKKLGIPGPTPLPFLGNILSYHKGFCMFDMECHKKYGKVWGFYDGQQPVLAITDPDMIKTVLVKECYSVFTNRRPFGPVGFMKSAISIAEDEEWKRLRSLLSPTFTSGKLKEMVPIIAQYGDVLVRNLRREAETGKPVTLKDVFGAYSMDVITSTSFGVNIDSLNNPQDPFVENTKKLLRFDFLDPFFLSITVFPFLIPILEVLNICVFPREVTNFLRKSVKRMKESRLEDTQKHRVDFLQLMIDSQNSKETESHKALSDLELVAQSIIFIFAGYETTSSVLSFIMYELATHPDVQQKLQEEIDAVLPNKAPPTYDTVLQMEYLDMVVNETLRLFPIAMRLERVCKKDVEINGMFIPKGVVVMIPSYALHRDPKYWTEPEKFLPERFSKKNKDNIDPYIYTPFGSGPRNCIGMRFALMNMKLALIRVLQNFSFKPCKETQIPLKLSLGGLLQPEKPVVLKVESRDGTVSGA
T1 sequence (Q2M2I8 whole entry): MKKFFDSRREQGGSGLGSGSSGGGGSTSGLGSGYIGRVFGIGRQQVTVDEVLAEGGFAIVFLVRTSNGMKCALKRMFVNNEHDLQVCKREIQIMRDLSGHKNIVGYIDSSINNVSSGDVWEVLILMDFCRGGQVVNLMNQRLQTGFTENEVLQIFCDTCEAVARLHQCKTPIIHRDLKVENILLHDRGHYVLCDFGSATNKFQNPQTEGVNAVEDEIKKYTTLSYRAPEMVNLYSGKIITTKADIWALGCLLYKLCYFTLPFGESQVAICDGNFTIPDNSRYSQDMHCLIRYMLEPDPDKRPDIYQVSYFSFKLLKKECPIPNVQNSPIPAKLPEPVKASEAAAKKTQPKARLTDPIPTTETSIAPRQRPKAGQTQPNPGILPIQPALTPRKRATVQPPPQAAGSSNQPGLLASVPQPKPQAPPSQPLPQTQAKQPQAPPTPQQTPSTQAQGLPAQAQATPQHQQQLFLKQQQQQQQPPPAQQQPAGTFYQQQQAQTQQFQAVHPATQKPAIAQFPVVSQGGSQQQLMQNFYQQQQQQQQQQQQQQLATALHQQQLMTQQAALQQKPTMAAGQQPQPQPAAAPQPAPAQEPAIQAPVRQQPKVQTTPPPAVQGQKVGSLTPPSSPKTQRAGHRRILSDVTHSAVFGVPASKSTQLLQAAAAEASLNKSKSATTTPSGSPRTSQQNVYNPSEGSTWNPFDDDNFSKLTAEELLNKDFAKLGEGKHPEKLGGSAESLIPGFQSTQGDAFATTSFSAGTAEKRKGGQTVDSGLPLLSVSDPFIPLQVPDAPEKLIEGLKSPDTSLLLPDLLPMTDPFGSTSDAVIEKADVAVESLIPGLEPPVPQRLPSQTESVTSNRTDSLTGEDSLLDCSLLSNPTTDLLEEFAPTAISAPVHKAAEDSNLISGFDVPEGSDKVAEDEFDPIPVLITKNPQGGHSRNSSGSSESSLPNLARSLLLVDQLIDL
Death-associated protein kinase 1, sequence (P53355 whole entry): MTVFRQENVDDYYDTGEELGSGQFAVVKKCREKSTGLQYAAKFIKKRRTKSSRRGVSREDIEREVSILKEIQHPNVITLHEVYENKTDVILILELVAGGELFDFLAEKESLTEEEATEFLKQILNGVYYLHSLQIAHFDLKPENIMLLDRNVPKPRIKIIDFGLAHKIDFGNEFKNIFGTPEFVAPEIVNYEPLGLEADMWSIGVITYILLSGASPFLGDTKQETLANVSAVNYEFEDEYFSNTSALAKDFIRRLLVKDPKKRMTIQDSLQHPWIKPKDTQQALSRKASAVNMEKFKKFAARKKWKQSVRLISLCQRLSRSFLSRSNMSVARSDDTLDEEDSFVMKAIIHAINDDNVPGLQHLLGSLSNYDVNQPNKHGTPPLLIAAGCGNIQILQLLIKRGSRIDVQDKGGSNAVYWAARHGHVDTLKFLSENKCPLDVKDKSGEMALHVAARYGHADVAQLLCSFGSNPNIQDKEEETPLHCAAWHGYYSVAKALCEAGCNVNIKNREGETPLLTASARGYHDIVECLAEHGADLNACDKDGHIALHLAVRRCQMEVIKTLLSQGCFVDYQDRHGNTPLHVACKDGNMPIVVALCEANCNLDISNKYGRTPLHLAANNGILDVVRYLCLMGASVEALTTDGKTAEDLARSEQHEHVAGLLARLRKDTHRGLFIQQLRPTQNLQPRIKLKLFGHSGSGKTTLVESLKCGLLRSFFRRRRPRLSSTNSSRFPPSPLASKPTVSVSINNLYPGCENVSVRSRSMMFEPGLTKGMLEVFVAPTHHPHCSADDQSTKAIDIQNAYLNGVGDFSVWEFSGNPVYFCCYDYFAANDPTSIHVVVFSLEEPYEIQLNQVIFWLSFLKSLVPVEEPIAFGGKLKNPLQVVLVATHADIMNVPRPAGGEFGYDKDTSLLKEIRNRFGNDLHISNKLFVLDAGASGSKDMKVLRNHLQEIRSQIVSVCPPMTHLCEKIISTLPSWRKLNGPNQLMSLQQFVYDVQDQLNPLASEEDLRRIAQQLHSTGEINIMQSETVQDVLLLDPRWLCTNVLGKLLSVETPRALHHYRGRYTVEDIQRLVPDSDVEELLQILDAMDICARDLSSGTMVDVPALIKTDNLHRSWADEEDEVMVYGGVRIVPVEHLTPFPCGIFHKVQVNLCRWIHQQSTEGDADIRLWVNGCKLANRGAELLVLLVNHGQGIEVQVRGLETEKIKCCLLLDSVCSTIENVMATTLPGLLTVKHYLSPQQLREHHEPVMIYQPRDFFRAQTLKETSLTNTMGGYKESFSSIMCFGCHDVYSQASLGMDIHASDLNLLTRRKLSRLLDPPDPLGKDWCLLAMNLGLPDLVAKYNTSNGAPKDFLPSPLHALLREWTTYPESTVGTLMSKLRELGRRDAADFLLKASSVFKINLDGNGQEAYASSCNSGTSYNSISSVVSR
Death-associated protein kinase 3, sequence (O43293 whole entry): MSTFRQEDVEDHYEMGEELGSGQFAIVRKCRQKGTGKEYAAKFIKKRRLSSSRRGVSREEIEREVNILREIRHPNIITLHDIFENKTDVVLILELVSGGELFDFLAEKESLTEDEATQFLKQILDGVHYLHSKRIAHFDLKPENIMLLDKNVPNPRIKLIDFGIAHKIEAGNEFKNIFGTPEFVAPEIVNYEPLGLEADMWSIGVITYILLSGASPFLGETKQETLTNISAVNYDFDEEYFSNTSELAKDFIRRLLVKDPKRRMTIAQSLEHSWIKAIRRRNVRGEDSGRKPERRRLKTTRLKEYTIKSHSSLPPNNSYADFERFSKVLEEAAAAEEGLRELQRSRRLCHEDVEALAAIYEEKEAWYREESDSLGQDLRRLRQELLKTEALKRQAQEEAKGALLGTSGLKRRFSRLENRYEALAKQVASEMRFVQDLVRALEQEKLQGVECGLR

SMILES | IC50 [1] [nM] | Ki [2] [nM] | remaining at 10 min, 0.5 µM [3] [%] | remaining at 10 min, 0.5 µM [4] [%] | remaining at 10 min, 0.5 µM [5] [%] | IC50 (Cytochrome P450 3A4) [nM] | IC50 [6] [nM] | IC50 [7] [nM] | Activity [10] [%] | IC50 [12] [nM] | IC50 [25] [nM] | IC50 [26] [nM] | IC50 [28] [nM] | IC50 [29] [nM] | also measured
COC(=O)Nc1cc(-c2cnc(OC[C@@](C)(N)CC(C)C)c(C#N)c2)ccn1 | 1 | 0.15 | 95 | 80 | 86 | 2200 | 900 | 1100 | 95 | – | – | – | – | – | IC50 [8]: 1700 nM; IC50 [9]: 590 nM
CC(=O)Nc1cc(-c2ccc(OC[C@@H](N)CC(C)C)c(F)c2)ccn1 | 2.6 | 0.52 | 90 | 80 | 79 | 8900 | – | – | – | 1.6 | – | – | – | – | Activity (Rattus norvegicus [11]): 65%; Kp at 2 h [13]: 1.5; Activity (Rattus norvegicus [14]): 56%; Kp at 5.5 h [15]: 1.2; Kp at 5.5 h [16]: 1; Kp at 5.5 h [17]: 1; Kp at 5.5 h [18]: 0.8; concentration at 5.5 h [19]: 270 nM; concentration at 5.5 h [20]: 190 nM; concentration at 5.5 h [21]: 320 nM; concentration at 5.5 h [22]: 190 nM; concentration at 5.5 h [23]: 270 nM; concentration at 5.5 h [24]: 150 nM
COC(=O)Nc1cc(-c2ccc(OC[C@@](C)(N)CC(C)C)c(C(F)F)n2)ccn1 | 0.8 | 0.07 | 77 | 91 | 84 | > 20000 | 120 | 140 | 89 | – | 20 | 560 | 1100 | 650 | IC50 [27]: 160 nM; IC50 [30]: 680 nM; IC50 (Myotonin-protein kinase): 1500 nM; IC50 [31]: 610 nM; IC50 [32]: 1300 nM
COC(=O)Nc1cc(-c2ccc(OC[C@@](C)(N)CC(C)C)c(Cl)n2)ccn1 | 0.5 | 0.17 | 93 | 99 | 72 | > 20000 | 1200 | – | 74 | 1.2 | 30 | 810 | 1100 | 1100 | IC50 [33]: 120 nM; IC50 [34]: 650 nM; IC50 [35]: 90 nM; IC50 [36]: 1600 nM; IC50 [37]: 1200 nM; IC50 [38]: 140 nM; IC50 [39]: 1400 nM; IC50 [40]: 1200 nM; IC50 [41]: 1400 nM
